Test results from ChEMBL document CHEMBL4715849, “Recent Progress in the Discovery of Antifungal Agents Targeting the Cell Wall” (J Med Chem, 2020).
In brackets after ≈: the same amount, converted by molar mass. Values belong to the molecule of their own block, whether it stands above or below them. Square brackets hold non-standard residues; d marks the D form. Peptide text beside a SMILES is read from it. * marks the point of attachment. Fumaryl(OMe) = COC(=O)/C=C/C(=O)*; Dap = NC[C@H](N)C(=O)O

Assays:
[1] = Inhibition of Candida albicans IFO1060 1,3-beta-D-glucan synthase
[2] = Inhibition of fungi 1,3-beta-D-glucan synthase
[3] = test system: Aspergillus fumigatus; assay: Antifungal activity against Aspergillus fumigatus CF1083 infected in iv dosed mouse model of pulmonary aspergillosis administered once daily for 4 days and measured on day 14; assay type: functional; conditions: 336 h, time 14 day
[4] = test system: Candida albicans; assay: Antifungal activity against Candida albicans K335 by agar incorporation method; assay type: functional
[5] = test system: Candida parapsilosis; assay: Antifungal activity against Candida parapsilosis K332 by agar incorporation method; assay type: functional; conditions: Lodderomyces parapsilosis
[6] = test system: Cyberlindnera jadinii; assay: Antifungal activity against Candida utilis K482 by agar incorporation method; assay type: functional; conditions: Williopsis jadinii
[7] = test system: Candida parapsilosis; assay: Antifungal activity against Candida parapsilosis K1154 by agar incorporation method; assay type: functional; conditions: Lodderomyces parapsilosis
[8] = test system: Candida albicans; assay: Antifungal activity against Candida albicans K341 by agar incorporation method; assay type: functional
[9] = test system: Candida tropicalis; assay: Antifungal activity against Candida tropicalis K1155 by agar incorporation method; assay type: functional
[10] = test system: Meyerozyma guilliermondii; assay: Antifungal activity against Candida guilliermondii K334 by agar incorporation method; assay type: functional
[11] = test system: Candida albicans; assay: Antifungal activity against Candida albicans K1133 by agar incorporation method; assay type: functional
[12] = test system: Candida tropicalis; assay: Antifungal activity against Candida tropicalis K337 by agar incorporation method; assay type: functional
[13] = test system: Pichia kudriavzevii; assay: Antifungal activity against Candida krusei K1153 by agar incorporation method; assay type: functional
[14] = test system: Candida albicans; assay: Antifungal activity against Candida albicans K1082 by agar incorporation method; assay type: functional
[15] = test system: Candida albicans; assay: Antifungal activity against Candida albicans AMB-25 incubated for 48 hrs by serial two-fold dilution method; assay type: functional
[16] = test system: Candida albicans; assay: Antifungal activity against Candida albicans incubated for 24 hrs by turbidimetric method; assay type: functional
[17] = test system: Candida albicans; assay: Antifungal activity against Candida albicans ATCC 262 incubated for 24 hrs by turbidimetric method; assay type: functional
[18] = test system: Candida albicans; assay: Antifungal activity against Candida albicans infected in mouse assessed as protection against fungus-induced lethal infection; assay type: functional; conditions: read-out: PD50
[19] = test system: Candida albicans; assay: Antifungal activity against Candida albicans Ca1055 by CLSI method; assay type: functional
[20] = test system: Candida albicans; assay: Antifungal activity against Candida albicans Ca2323/ORF6.945 by CLSI method; assay type: functional
[21] = test system: Candida parapsilosis; assay: Antifungal activity against Candida parapsilosis ATCC22019 by CLSI method; assay type: functional; conditions: Lodderomyces parapsilosis

- IC50 [1]: 8 nM
SMILES: CCCCCCCCCCCCC[C@H]1OC(=O)[C@H](CCCNC(=O)[C@@H](N)CCCN)NC(=O)[C@@H]([C@@H](C)O)NC(=O)CNC(=O)[C@H]([C@H](O)CC(N)=O)NC(=O)[C@H]2[C@@H](O)CCN2C(=O)[C@H]([C@@H](C)O)NC(=O)[C@@H]2C[C@@H](O)CN2C(=O)[C@H](C(C)C)NC(=O)[C@H](Cc2ccc(O)cc2)NC(=O)[C@@H](C)NC(=O)[C@H]([C@@H](C)O)NC1=O

- IC50 [2]: 0.28 nM
SMILES: CCCCCCCCCCCCC[C@H]1OC(=O)[C@H](CCCN(CCCN)C(=O)[C@@H](CCCN)N(CCN)CCN)NC(=O)[C@@H]([C@@H](C)O)NC(=O)CNC(=O)[C@H]([C@H](O)CC(N)=O)NC(=O)[C@H]2[C@@H](O)CCN2C(=O)[C@H]([C@@H](C)O)NC(=O)[C@@H]2C[C@@H](O)CN2C(=O)[C@H](C(C)C)NC(=O)[C@H](Cc2ccc(O)cc2)NC(=O)[C@@H](C)NC(=O)[C@H]([C@@H](C)O)NC1=O
- ED50 [3]: 5.2 mg/kg

- MIC [4]: 0.1 mg/L (≈ 0.174 µM)
- MIC [5]: 0.1 mg/L (≈ 0.174 µM)
- MIC [6]: 0.1 mg/L (≈ 0.174 µM)
- MIC [7]: 0.1 mg/L (≈ 0.174 µM)
- MIC [8]: 0.1 mg/L (≈ 0.174 µM)
- MIC [9]: 0.1 mg/L (≈ 0.174 µM)
- MIC [10]: 0.1 mg/L (≈ 0.174 µM)
- MIC [11]: 0.1 mg/L (≈ 0.174 µM)
- MIC [12]: 0.1 mg/L (≈ 0.174 µM)
- MIC [13]: 0.1 mg/L (≈ 0.174 µM)
- MIC [14]: 0.1 mg/L (≈ 0.174 µM)
SMILES: CC[C@H](C)CC/C=C/C=C(\C)[C@@H](O)C/C=C/C=C/C(=O)O[C@H]1[C@H](O)[C@@H](CO)O[C@]2(OCc3cc(O)cc(O)c32)[C@@H]1O

- MIC [15]: 0.4 mg/L (≈ 1.33 µM)
SMILES: CCC(N)C(=O)N[C@@H](CNC(=O)/C=C/C(=O)OC)C(=O)O (stereo not given in full)

- MIC [16]: 0.025 mg/L (≈ 0.0337 µM)
- MIC [17]: 0.025 mg/L (≈ 0.0337 µM)
SMILES: COC(=O)/C=C/C(=O)NC[C@H](NC(=O)[C@H](CCSC)NC(=O)[C@H](CCSC)NC(=O)[C@H](CCSC)NC(=O)[C@@H](N)CCSC)C(=O)O (H-MMMM[Dap](Fumaryl(OMe))-OH)

SMILES: COc1cc(O)c2c(c1)C(=O)c1c(cc3c(c1O)-c1c(cc(C)c(C(=O)N[C@H](CO)C(=O)O)c1O)[C@H](O[C@@H]1O[C@H](C)[C@H](O)[C@H](O[C@@H]4OC[C@@H](O)[C@H](O)[C@H]4O)[C@H]1O)[C@H]3O)C2=O
- ED50 [18]: 33 mg/kg

- MIC [16]: 0.025 mg/L (≈ 0.0369 µM)
- MIC [17]: 0.025 mg/L (≈ 0.0369 µM)
SMILES: COC(=O)/C=C/C(=O)NC[C@H](NC(=O)[C@H](CCSC)NC(=O)[C@H](CCSC)NC(=O)[C@@H](N)CNC(=O)/C=C/C(=O)OC)C(=O)O (H-[Dap](Fumaryl(OMe))MM[Dap](Fumaryl(OMe))-OH)

- IC50 [2]: 0.2 nM
SMILES: CCCCCCCCCCCCC[C@H]1OC(=O)[C@H](CCCN(CCN)C(=O)[C@H](CCCN)N(CCN)CCN)NC(=O)[C@@H]([C@@H](C)O)NC(=O)CNC(=O)[C@H]([C@H](O)CC(N)=O)NC(=O)[C@H]2[C@@H](O)CCN2C(=O)[C@H]([C@@H](C)O)NC(=O)[C@@H]2C[C@@H](O)CN2C(=O)[C@H](C(C)C)NC(=O)[C@H](Cc2ccc(O)cc2)NC(=O)[C@@H](C)NC(=O)[C@H]([C@@H](C)O)NC1=O
- ED50 [3]: 5.2 mg/kg

- MIC [16]: 0.025 mg/L (≈ 0.0698 µM)
- MIC [17]: 0.025 mg/L (≈ 0.0698 µM)
SMILES: COC(=O)/C=C/C(=O)NC[C@H](NC(=O)[C@H](C)N)C(=O)N[C@@H](C)C(=O)O

- MIC [15]: 0.4 mg/L (≈ 1.21 µM)
SMILES: COC(=O)/C=C/C(=O)NC[C@H](N)C(=O)N[C@@H](CC(C)C)C(=O)O

- MIC [16]: 0.025 mg/L (≈ 0.0564 µM)
- MIC [17]: 0.025 mg/L (≈ 0.0564 µM)
SMILES: CCC[C@H](NC(=O)[C@@H](N)CCCCN)C(=O)N[C@@H](CNC(=O)/C=C/C(=O)OC)C(=O)O

- MIC [16]: 0.025 mg/L (≈ 0.0599 µM)
- MIC [17]: 0.025 mg/L (≈ 0.0599 µM)
SMILES: COC(=O)/C=C/C(=O)NC[C@H](NC(=O)[C@H](C)NC(=O)[C@@H](N)CCSC)C(N)=O

- MIC [15]: 0.4 mg/L (≈ 1.46 µM)
SMILES: COC(=O)/C=C/C(=O)NC[C@H](NC(=O)CN)C(=O)O

- MIC [15]: 0.4 mg/L (≈ 1.1 µM)
SMILES: COC(=O)/C=C/C(=O)NC[C@H](NC(=O)[C@H](N)Cc1ccccc1)C(=O)O

- IC50 [1]: 5 nM
SMILES: CCCCCCCCCCCCC[C@H]1OC(=O)[C@H](CCCNC(=O)[C@H](N)CCCN)NC(=O)[C@@H]([C@@H](C)O)NC(=O)CNC(=O)[C@H]([C@H](O)CC(N)=O)NC(=O)[C@H]2[C@@H](O)CCN2C(=O)[C@H]([C@@H](C)O)NC(=O)[C@@H]2C[C@@H](O)CN2C(=O)[C@H](C(C)C)NC(=O)[C@H](Cc2ccc(O)cc2)NC(=O)[C@@H](C)NC(=O)[C@H]([C@@H](C)O)NC1=O

- MIC [15]: 0.4 mg/L (≈ 1.15 µM)
SMILES: COC(=O)/C=C/C(=O)NC[C@H](NC(=O)[C@H](N)CCSC)C(=O)O

- IC50 [2]: 0.25 nM
SMILES: CCCCCCCCCCCCC[C@H]1OC(=O)[C@H](CCCN(CCCN)C(=O)[C@H](CCCN)N(CCN)CCN)NC(=O)[C@@H]([C@@H](C)O)NC(=O)CNC(=O)[C@H]([C@H](O)CC(N)=O)NC(=O)[C@H]2[C@@H](O)CCN2C(=O)[C@H]([C@@H](C)O)NC(=O)[C@@H]2C[C@@H](O)CN2C(=O)[C@H](C(C)C)NC(=O)[C@H](Cc2ccc(O)cc2)NC(=O)[C@@H](C)NC(=O)[C@H]([C@@H](C)O)NC1=O
- ED50 [3]: 5.2 mg/kg

- MIC [15]: 0.4 mg/L (≈ 1.21 µM)
SMILES: COC(=O)/C=C/C(=O)NC[C@H](NC(=O)[C@H](N)CC(C)C)C(=O)O

- MIC [15]: 0.4 mg/L (≈ 1.05 µM)
SMILES: COC(=O)/C=C/C(=O)NC[C@H](NC(=O)[C@H](N)Cc1ccc(O)cc1)C(=O)O

- MIC [19]: 4 mg/L (≈ 14.1 µM)
- MIC [20]: 4 mg/L (≈ 14.1 µM)
- MIC [21]: 8 mg/L (≈ 28.1 µM)
SMILES: CCCC(C)Oc1cccc(NC(=O)c2cccnc2)c1 (stereo not given)
